From PMC5267425, “Identification of small molecule modulators of HIV-1 Tat and Rev protein accumulation” (Retrovirology, 2017)

Tested on: alternative splicing of host transcripts in HeLa rtTA HIV∆Mls cells
Experiment: RT-PCR of host alternative splicing events (PSI), capillary electrophoresis
Assay type: cell-based
Protocol: To assess the effect of compounds on expression/alternative splicing of cellular RNA, two approaches were used. For both, total RNA was prepared from DMSO or compound-treated cells. In the first assay, samples were assayed by medium throughput RT-PCR to determine the inclusion levels of alternatively spliced exons and splice sites located in 73 selected events. 73 primer sets containing a fluorescently (5-FAM) labeled primer for each, were used in RT-PCR. PCR products generated were denatured in formamide and quantified using ABI Prism capillary sequencer (Life Technologies). The fragment analysis was performed on the PeakScanner software (Life Technologies) in batch mode and automated using custom scripts written in Python. The inclusion level of each exon was calculated as the amount of transcripts carrying the alternative exon relative to the total amount of all transcripts detected in the PCR reaction and results are summarized for compound-treatment in comparison to DMSO treatment. In the second assay, extracted RNA was processed using the Illumina TruSeq RNA Sample Preparation Kit (Illumina) according to the manufacturer’s instructions. The cDNA library generated was validated (passed quality control on a Bioanalyzer 1000 DNA chip (Agilent)), normalized and pooled for cluster generation. cDNA libraries were sequenced on the Illumina HiSeq 2500 (paired-end, 125 bp) with version 4 chemistry following manufacturer’s protocols. The full human genome and transcriptomic sequences were downloaded from the UCSC Genome Browser (genome.ucsc.edu) database and Ensembl (www.ensembl.org), respectively, as described by Irimia et al.. Exon annotations and genomic coordinates for alternative splicing (AS) analysis were derived from tables downloaded from the UCSC Genome Browser database. To determine gene expression (GE) or alternative splicing (AS) changes in an unbiased way, the effective number of unique mappable positions in each transcript (i.e. the effective length) was determined by aligning sequences with unique transcriptomic alignment to the human genome using Bowtie. Reads with one unique genomic alignment were then aligned against the canonical transcriptome and, for each transcript, the number of reads with one unique transcriptomic alignment were counted. The expression level of genes was quantified as corrected ‘reads per kilobase of exon model per million mapped reads’ (cRPKM), a widely used metric to estimate gene expression levels. The expression cutoff was 0.5 cRPKM, corresponding to the transcript of the gene being present if there were ≥10 reads that mapped uniquely to a single genomic locus. Approximately 19,847 Ensembl annotated protein-coding genes were compared to create a gene list of differentially expressed genes. Genes were considered differentially expressed if fold changes in cRPKM was ≥2 in compound-treated versus DMSO-treated samples.

[1] = of 70 AS events, 791 30 µM, 833 2 µM

Cc1cc(NCc2cccnc2)n2ncc(-c3ccc(Cl)cc3)c2n1 [Compound 791, 3-(4-chlorophenyl)-5-methyl-N-(3-pyridinylmethyl)pyrazolo[1,5-a]pyrimidin-7-amine]
DPSI AGPAT4_1 chr6:161506598-161506735 (9147791 minus DMSO, mean n=3): -4.00% | DPSI AGPAT4_1 chr6:161507269-161507439 (9147791 minus DMSO, mean n=3): -6.33% | DPSI APLP2_1 chr11:129498717-129498884 (9147791 minus DMSO, mean n=3): 1.33% | DPSI APP_1 chr21:26291546-26291602 (9147791 minus DMSO, mean n=3): 0.33% | DPSI APP_1 chr21:26294201-26294368 (9147791 minus DMSO, mean n=3): -1.33% | DPSI ATP6V0A1_1 chr17:37919833-37920004 (9147791 minus DMSO, mean n=3): 2.00% | DPSI CA12_1 chr15:61406400-61406485 (9147791 minus DMSO, mean n=3): -0.33% | DPSI CA12_1 chr15:61407349-61407382 (9147791 minus DMSO, mean n=3): 4.67% | DPSI CASP9_1 chr1:15703693-15703840* (9147791 minus DMSO, mean n=3): -1.33% | DPSI CAST_1 chr5:96090613-96090669 (9147791 minus DMSO, mean n=3): 5.33% | DPSI CLSTN1_1 chr1:9720143-9720199 (9147791 minus DMSO, mean n=3): -8.67% | DPSI CLSTN1_2 chr1:9739126-9739155 (9147791 minus DMSO, mean n=3): -2.33% | DPSI CRBN_1 chr3:3191846-3191950 (9147791 minus DMSO, mean n=3): 0.00% | DPSI CRBN_1 chr3:3191950-3191953 (9147791 minus DMSO, mean n=3): 0.00% | DPSI CTNND1_1 chr11:57318058-57318129 (9147791 minus DMSO, mean n=3): -4.33% | DPSI DNM1L_1 chr12:32782066-32782143 (9147791 minus DMSO, mean n=3): 9.00% | DPSI DNM1L_1 chr12:32782465-32782497 (9147791 minus DMSO, mean n=3): -2.00% | DPSI DRCTNNB1A_1 chr7:22953096-22953391 (9147791 minus DMSO, mean n=3): -8.00% | DPSI EIF4A2_1 chr7:187988792-187988899 (9147791 minus DMSO, mean n=3): 3.33% | DPSI EIF4A2_1 chr7:187988899-187988904 (9147791 minus DMSO, mean n=3): 2.00% | DPSI EIF4H_1 chr7:73242512-73242572 (9147791 minus DMSO, mean n=3): 0.00% | DPSI ERC1_1 chr12:1091641-1091725 (9147791 minus DMSO, mean n=3): 2.67% | DPSI EXOC7_1 chr17:71598005-71598035 (9147791 minus DMSO, mean n=3): -6.00% | DPSI EXOC7_1 chr17:71598819-71598911 (9147791 minus DMSO, mean n=3): -4.67% | DPSI FAM62B_1 chr7:158238233-158238295 (9147791 minus DMSO, mean n=3): -8.33% | DPSI FAM104A_1 chr17:68720412-68720474 (9147791 minus DMSO, mean n=3): -1.00% | DPSI FGFR1OP2_1 chr12:27004715-27004828 (9147791 minus DMSO, mean n=3): -11.00% | DPSI FIP1L1_1 chr4:53975538-53975646 (9147791 minus DMSO, mean n=3): -4.33% | DPSI GGCT_1 chr7:30504943-30505080 (9147791 minus DMSO, mean n=3): 3.33% | DPSI GGCT_1 chr7:30506676-30506822 (9147791 minus DMSO, mean n=3): 3.33% | DPSI GLK_1 chr2:39388587-39388650 (9147791 minus DMSO, mean n=3): -0.33% | DPSI GM130_1 chr9:130069293-130069374 (9147791 minus DMSO, mean n=3): -9.67% | DPSI GRB10_1 chr7:50651400-50651538 (9147791 minus DMSO, mean n=3): -0.33% | DPSI KIF13A_1 chr6:17879324-17879428 (9147791 minus DMSO, mean n=3): -1.33% | DPSI MACF1_1 chr1:39616720-39616782 (9147791 minus DMSO, mean n=3): 3.33% | DPSI MACF1_5 chr1:39719179-39719289 (9147791 minus DMSO, mean n=3): -13.67% | DPSI MAP3K7_1 chr6:91310992-91311072 (9147791 minus DMSO, mean n=3): 0.33% | DPSI MARK3_1 chr14:103034592-103034618 (9147791 minus DMSO, mean n=3): -2.67% | DPSI MARK3_1 chr14:103036246-103036290 (9147791 minus DMSO, mean n=3): -1.33% | DPSI MBD1_1 chr18:46054554-46054721 (9147791 minus DMSO, mean n=3): -9.33% | DPSI MBNL2_1 chr13:96807051-96807104 (9147791 minus DMSO, mean n=3): 0.33% | DPSI MFF_1 chr2:227901637-227901749 (9147791 minus DMSO, mean n=3): 4.33% | DPSI MRIP_1 chr17:17024646-17024708 (9147791 minus DMSO, mean n=3): 1.00% | DPSI MVK_1 chr12:108501990-108502134 (9147791 minus DMSO, mean n=3): 11.00% | DPSI MVK_1 chr12:108503583-108503738 (9147791 minus DMSO, mean n=3): 20.33% | DPSI NAP1L1_1 chr12:74747418-74747520 (9147791 minus DMSO, mean n=3): 4.67% | DPSI NAP1L1_1 chr12:74748956-74749041 (9147791 minus DMSO, mean n=3): 4.33% | DPSI NPHP3_1 chr3:133898264-133898347 (9147791 minus DMSO, mean n=3): -1.00% | DPSI NUMB_2 chr14:72815742-72815885 (9147791 minus DMSO, mean n=3): 0.67% | DPSI NUMB_2 chr14:72820542-72820835 (9147791 minus DMSO, mean n=3): 6.67% | DPSI PDCL_1 chr9:124628716-124628892 (9147791 minus DMSO, mean n=3): 1.33% | DPSI POLDIP3_1 chr22:41327919-41328006 (9147791 minus DMSO, mean n=3): -3.67% | DPSI POMT1_1 chr9:133368281-133368521 (9147791 minus DMSO, mean n=3): 5.67% | DPSI POMT1_1 chr9:133371321-133371428 (9147791 minus DMSO, mean n=3): 5.67% | DPSI RAI14_1 chr5:34849436-34849522 (9147791 minus DMSO, mean n=3): 3.67% | DPSI RAN_1 chr12:129923082-129923127 (9147791 minus DMSO, mean n=3): -2.00% | DPSI RPS24_1 chr10:79467729-79467746 (9147791 minus DMSO, mean n=3): 1.67% | DPSI SEC24B_1 chr4:110622281-110622386 (9147791 minus DMSO, mean n=3): -4.00% | DPSI SETD5_1 chr3:9453533-9453572 (9147791 minus DMSO, mean n=3): -1.33% | DPSI SMN2_1 chr5_h2_hap1:475625-475826 (9147791 minus DMSO, mean n=3): 0.33% | DPSI SMN2_2 chr5_h2_hap1:466192-466246 (9147791 minus DMSO, mean n=3): 1.67% | DPSI SPAG9_1 chr17:46408223-46408261 (9147791 minus DMSO, mean n=3): -6.67% | DPSI SRPK2_1 chr2:104553464-104553557 (9147791 minus DMSO, mean n=3): -1.00% | DPSI SRPK2_1 chr2:104553930-104554023 (9147791 minus DMSO, mean n=3): 0.00% | DPSI TPM1_1 chr15:61140450-61140525 (9147791 minus DMSO, mean n=3): 1.67% | DPSI TPM1_1 chr15:61140965-61141040 (9147791 minus DMSO, mean n=3): -1.67% | DPSI TRIM37_1 chr17:54433741-54433857 (9147791 minus DMSO, mean n=3): -4.67% | DPSI ZNF827_1 chr4:146903692-146903724 (9147791 minus DMSO, mean n=3): 2.33% | DPSI ZNF827_1 chr4:146905581-146905589 (9147791 minus DMSO, mean n=3): -1.00% | AS events with DPSI ≤ -10% [1]: 2 | AS events with DPSI ≥ 10% [1]: 0 | AS events with P ≤ 0.05 [1]: 9
